The record followed here is patent publication US8053453B2, “Pyrazolone compounds and thrombopoietin receptor activator” (Nissan Chemical Industries, Ltd., priority 2002, dated 2011).

In the test the target is T1, human TPO receptor (Homo sapiens, UniProt P40238).
T1 construct: expressed in transfected cells
T1 sequence (P40238 26-635): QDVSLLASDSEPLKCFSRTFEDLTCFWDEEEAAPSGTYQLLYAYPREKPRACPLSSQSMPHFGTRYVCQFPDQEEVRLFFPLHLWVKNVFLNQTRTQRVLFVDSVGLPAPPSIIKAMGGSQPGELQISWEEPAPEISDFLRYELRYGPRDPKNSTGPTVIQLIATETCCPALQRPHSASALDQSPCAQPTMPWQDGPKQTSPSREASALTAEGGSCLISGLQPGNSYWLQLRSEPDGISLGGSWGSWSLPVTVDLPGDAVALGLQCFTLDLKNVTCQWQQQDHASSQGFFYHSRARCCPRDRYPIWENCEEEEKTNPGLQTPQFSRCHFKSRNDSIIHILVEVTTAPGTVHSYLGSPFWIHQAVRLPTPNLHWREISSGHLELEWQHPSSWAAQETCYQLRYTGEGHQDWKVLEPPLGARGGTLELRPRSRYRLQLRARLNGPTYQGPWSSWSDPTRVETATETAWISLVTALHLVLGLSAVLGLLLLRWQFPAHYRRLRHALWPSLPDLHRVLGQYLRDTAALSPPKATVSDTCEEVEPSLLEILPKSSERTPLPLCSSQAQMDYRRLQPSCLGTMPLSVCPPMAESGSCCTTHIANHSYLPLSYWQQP
Kind of test: Proliferation of TPO-dependent cell line UT7/EPO-mpl, WST-8 reagent (Assay Example 5). Type of test: cell-based. The note with it: WST-8, 4 days; for Efficacy (%) (maximal growth rate): growth with 10 ng/ml TPO = 100%. As for the experimental part: Human leukemic cell line UT7/EPO-mpl was washed twice with PBS and suspended in IMDM containing 10% FBS at a cell density of 6×10^4 cells/ml. The cell suspension was transferred to a 96-well tissue culture plate (CORNING) in 100-μl aliquots. Then either TPO or the following Synthetic Examples, each dissolved in DMSO, were diluted 83-fold with IMDM containing 10% FBS and added to the aforementioned cell suspension in 20-μl aliquots. The suspension was incubated in a CO2 incubator (5% CO2, 37° C.) for 4 days. Cell proliferation was assayed using WST-8 reagent (Kishida Chemical, Co. Ltd.) according to instructions by the manufacturer. A 10-μl aliquot of 5 mM WST-8 reagent solution was added to each well of the tissue culture plate and the plate was incubated at 37° C. for 4 h. The formazan pigment generated was detected by measuring the absorbance at 450 nm with a 96-well microplate reader (Nihon Molecular Devices, SpectraMax 190). The concentration of each compound that yields a growth rate corresponding to 50% of the growth of human leukemic cell line UT7/EPO-mpl observed in the presence of 10 ng/ml TPO (EC50T) and the maximal growth rate achieved by the same compound (efficacy), expressed by taking the value with human leukemic cell line UT7/EPO-mpl in the presence of 10 ng/ml TPO as 100% standard, are summarized in Table 9.

For the compound `CC(NNC(=O)c1ccc(C(=O)O)cc1)=C1C(=O)N(c2ccc(C)c(C)c2)N=C1C(F)(F)F` [compound 96], the “EC50T (concentration yielding 50% of the growth observed with 10 ng/ml TPO)” value is 0.0033 µg/mL and the “Efficacy (%) (maximal growth rate)” value came out at 93%.

In the case of `CC1=NN(c2ccc(C(C)(C)C)cc2)C(=O)C1=CNNC(=O)c1ccc(C(=O)O)cc1` [compound 97], the “EC50T (concentration yielding 50% of the growth observed with 10 ng/ml TPO)” value worked out at 0.025 µg/mL and the “Efficacy (%) (maximal growth rate)” value was found to be 94%.

Turning to `COC(=O)c1ccc(C(=O)NNC(C)=C2C(=O)N(c3ccc(C(C)(C)C)cc3)N=C2C)s1` [compound 98], the “EC50T (concentration yielding 50% of the growth observed with 10 ng/ml TPO)” value came to 0.031 µg/mL and the “Efficacy (%) (maximal growth rate)” value was found to be 96%.

For the compound `CC1=NN(c2ccc(C(C)(C)C)cc2)C(=O)C1=C(C)NNC(=O)c1ccc(C(=O)O)s1` [compound 99], the “EC50T (concentration yielding 50% of the growth observed with 10 ng/ml TPO)” value worked out at 0.0039 µg/mL and the “Efficacy (%) (maximal growth rate)” value was 110%.

Regarding `CC1=NN(c2ccc3ccccc3n2)C(=O)C1=C(C)NNC(=O)c1ccc(C(=O)O)cc1` [compound 100], the “EC50T (concentration yielding 50% of the growth observed with 10 ng/ml TPO)” value was determined as 0.059 µg/mL and the “Efficacy (%) (maximal growth rate)” value was 107%.

With `COC(=O)c1ccc(C(=O)NNC(C)=C2C(=O)N(c3ccc(Cl)nn3)N=C2C)cc1` [compound 101], the “EC50T (concentration yielding 50% of the growth observed with 10 ng/ml TPO)” value amounted to 0.018 µg/mL and the “Efficacy (%) (maximal growth rate)” value was found to be 100%.

Turning to `CC1=NN(c2ccc(C(F)(F)F)cn2)C(=O)C1=C(C)NNC(=O)c1ccc(C(=O)O)cc1` [compound 102], the “EC50T (concentration yielding 50% of the growth observed with 10 ng/ml TPO)” value turned out to be 0.069 µg/mL and the “Efficacy (%) (maximal growth rate)” value turned out to be 100%.

Take `CC1=NN(c2ccc(C(C)(C)C)cc2)C(=O)C1=C(C)NNC(=O)c1ccc(-c2nnn[nH]2)cc1` [compound 103]: the “Efficacy (%) (maximal growth rate)” value was 90%. Moreover, where the note is “read-out: EC50T (concentration yielding 50% of the growth observed with 10 ng/ml TPO) (converted)”, the EC50 is 10.5 nM.
